For data set [1], the system named is Bacillus subtilis FG347 bacteria. Kind of data set: Test C FtsZ Z-ring assay (GFP-ZapA fluorescence microscopy). Type of data set: cell-based. Particulars: compound at 3 μg/mL. On the procedure: Test C. FtsZ Z-Ring Assay.
The impact of a compound on FtsZ Z-ring formation can be determined using a strain of Bacillus subtilis (FG347) that expresses a green fluorescent protein (GFP)-ZapA fusion protein upon induction with xylose. ZapA is known to associate with FtsZ Z-rings in B. subtilis and, thus, serves as a marker for Z-ring formation. In this assay, log-phase FG347 bacteria are treated with differing concentrations of compound for time periods ranging from 1 to 6 hours. At each time point, aliquots are taken from each culture and then viewed with a fluorescence microscope.
Examples 4 and 6-8 were evaluated for their impact on the polymerization of Staphylococcus aureus FtsZ. […] In addition, Example 5 and 7 were also examined for their impact on FtsZ Z-ring formation in Bacillus subtilis FG347 bacteria. […] These collective results highlight the compounds of the invention as FtsZ-targeting antibacterial agents.

Another data set relates to MSSA. Kind of data set: Test A antibacterial assay, broth microdilution MIC. Particulars: Staphylococcus aureus, growth read after 24 to 48 hours at OD 600 nm. Type of data set: cell-based. On the procedure:
Test A. Antibacterial Assay. Antibacterial activity can be determined as per Clinical and Laboratory Standards Institute (CLSI) guidelines using a broth microdilution assay in which log-phase bacteria are grown at 37° C. in appropriate medium containing two-fold serial dilutions of a compound to yield final concentrations ranging from 256 to 0.06 μg/mL. For determination of minimal inhibitory concentration (MIC) values, bacterial growth is monitored after 24 to 48 hours by measuring optical density at 600 nm.

Data set [2] is classed as in vivo. The following applies: formulated in 20% DMA, 40% proplyeneglycol in 8% Cremophor-EL; apparent embolitic effect from drug precipitation. On the procedure: The literature vehicle reported for formulation of 5-chloro-2-(2,4-difluoro-3-aminocarbonylphenoxy)methylpyridylthiazole for i.v. administration consists of 20% DMA, 40% polyethylene glycol and 40% saline. […] Mice that were treated 15 minutes later with a second injection consisting of 150 μl of this vehicle died. In addition, concentrations of 5-chloro-2-(2,4-difluoro-3-aminocarbonylphenoxy)methylpyridylthiazole at or above 2.2 mg/ml in this vehicle were not completely dissolved and existed as a suspension (in a 28 g mouse this would be 15.7 mg/kg). A number of other formulations with 5-chloro-2-(2,4-difluoro-3-aminocarbonylphenoxy)methyl benzothiazole were tried, such as 20% DMA, 40% proplyeneglycol in 8% Cremophor-EL. […] Because of the limited solubility and the absence of a suitable vehicle, the literature study where it was reported that a 30 mg/kg dose of 5-chloro-2-(2,4-difluoro-3-aminocarbonylphenoxy)methylpyridylthiazole was delivered to mice in a single injection could not be repeated. […] In some instances the addition of 10-30% propylene glycocol did allow for greater retention of solubility of the test compounds. Example 4 was also found to formulate well at a 2.0 mg/ml concentration in 10 mM malic acid with 20% propylene glycol and with 10 mM p-toluenesulphonate alone. Example 6 did formulate well in 10 mM citrate alone at a concentration of 2.0 mg/ml. […]

Converted amounts (≈) assume the structure as drawn.

As for `CN(C)/C=N/C(=O)c1c(F)ccc(OCc2nc3cc(Cl)cnc3s2)c1F` [Example 5], in data set [1], the bacterial morphology induced entry is recorded as “elongated, filamentous morphology” and the “impact on FtsZ Z-ring formation” value is reported as “inhibit FtsZ Z-ring formation”. The compound also registered a minimum inhibitory concentration (MIC) against MSSA of 0.25 µg/mL (≈ 0.609 µM).
Consider `O=C(NCN1CCOCC1)c1c(F)ccc(OCc2nc3cc(Cl)cnc3s2)c1F` [Example 7], for which, in data set [1], the bacterial morphology induced entry is on record as “elongated, filamentous morphology” and the “impact on FtsZ Z-ring formation” value is “inhibit FtsZ Z-ring formation”. This compound showed an MIC against MSSA of 0.5 µg/mL (≈ 1.1 µM).
In the case of `NC(=O)c1c(F)ccc(OCc2nc3cc(Cl)ccc3s2)c1F` [5-chloro-2-(2,4-difluoro-3-aminocarbonylphenoxy)methyl benzothiazole], in data set [2], the “outcome of mice treated with the formulation” value was “died within a few minutes”.

Source of the values: US9475783B2, “Antimicrobial agents” (Rutgers, the State University of New Jersey, priority 2012, dated 2016).
